Measurements taken from PMC5831858, “Pharmacological characterisation of CR6086, a potent prostaglandin E2 receptor 4 antagonist, as a new potential disease-modifying anti-rheumatic drug” (Arthritis Research & Therapy, 2018).

How the values were obtained:
[1] = test system: BB (non-selective); test: BB receptor (non-selective) binding; conditions: [^125I][Tyr^4]bombesin, Rat cerebral cortex
[2] = target: 5-HT7 (Homo sapiens, UniProt P34969); test: Serotonin receptor 5-HT7 binding; conditions: [^3H]LSD, Human recombinant CHO cells, read-out: CR6086 Activity at 10µM
[3] = target: NK2 (Homo sapiens, UniProt P21452); test: Neurokinin receptor NK2 binding; conditions: [^125I]NKA, Human recombinant CHO cells, read-out: CR6086 Activity at 10µM
[4] = target: D5 (Homo sapiens, UniProt P21918); test: Dopamine receptor D5 binding; conditions: [^3H]SCH 23390, Human recombinant GH4 cells, read-out: CR6086 Activity at 10µM
[5] = test system: ER; test: Nuclear receptor ER binding; conditions: [^3H]estradiol, MCF-7 cells
[6] = target: H1 (Homo sapiens, UniProt P35367); test: Histamine receptor H1 binding; conditions: [^3H]pyrilamine, Human recombinant HEK-293 cells, read-out: CR6086 Activity at 10µM
[7] = target: CXCR2 (IL-8B) (Homo sapiens, UniProt P25025); test: CXCR2 receptor binding; conditions: [^125I]IL-8, Human recombinant HEK-293 cells, read-out: CR6086 Activity at 10µM
[8] = target: β2 (Homo sapiens, UniProt P07550); test: Adrenergic receptor β2 binding; conditions: [^3H](-)CGP 12177, Human recombinant CHO cells, read-out: CR6086 Activity at 10µM
[9] = target: D2S (Homo sapiens, UniProt P14416); test: Dopamine receptor D2S binding; conditions: [^3H]methyl-spiperone, Human recombinant HEK-293 cells, read-out: CR6086 Activity at 10µM
[10] = target: M2 (Homo sapiens, UniProt P08172); test: Muscarinic acetylcholine receptor M2 binding; conditions: [^3H]AF-DX 384, Human recombinant CHO cells, read-out: CR6086 Activity at 10µM
[11] = target: 5-HT2A (Homo sapiens, UniProt P28223); test: Serotonin receptor 5-HT2A binding; conditions: [^3H]ketanserin, Human recombinant HEK-293 cells, read-out: CR6086 Activity at 10µM
[12] = target: Norepinephrine transporter (Homo sapiens, UniProt P23975); test: Norepinephrine transporter binding; conditions: [^3H]nisoxetine, Human recombinant CHO cells, read-out: CR6086 Activity at 10µM
[13] = target: 5-HT transporter (Homo sapiens, UniProt P31645); test: 5-HT transporter binding; conditions: [^3H]imipramine, Human recombinant CHO cells, read-out: CR6086 Activity at 10µM
[14] = target: T1, EP3 (Homo sapiens, UniProt P43115); test: Eicosanoid receptor EP3 binding; conditions: [^3H]PGE2, HEK-293 cells, read-out: CR6086 Activity at 10µM
T1 construct: host or cells: HEK-293 cells

Sequence of NK2 (P21452 whole entry): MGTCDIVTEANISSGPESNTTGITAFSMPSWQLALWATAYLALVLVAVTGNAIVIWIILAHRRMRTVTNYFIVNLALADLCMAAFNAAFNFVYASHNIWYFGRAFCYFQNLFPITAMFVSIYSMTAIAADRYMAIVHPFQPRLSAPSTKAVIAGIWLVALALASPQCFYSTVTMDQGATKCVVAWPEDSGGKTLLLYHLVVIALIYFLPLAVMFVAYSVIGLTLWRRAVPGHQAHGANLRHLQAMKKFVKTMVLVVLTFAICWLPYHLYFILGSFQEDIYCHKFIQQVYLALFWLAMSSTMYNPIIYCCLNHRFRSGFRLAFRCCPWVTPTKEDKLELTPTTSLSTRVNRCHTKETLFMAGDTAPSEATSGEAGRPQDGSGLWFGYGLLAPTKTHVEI
Sequence of D5 (P21918 whole entry): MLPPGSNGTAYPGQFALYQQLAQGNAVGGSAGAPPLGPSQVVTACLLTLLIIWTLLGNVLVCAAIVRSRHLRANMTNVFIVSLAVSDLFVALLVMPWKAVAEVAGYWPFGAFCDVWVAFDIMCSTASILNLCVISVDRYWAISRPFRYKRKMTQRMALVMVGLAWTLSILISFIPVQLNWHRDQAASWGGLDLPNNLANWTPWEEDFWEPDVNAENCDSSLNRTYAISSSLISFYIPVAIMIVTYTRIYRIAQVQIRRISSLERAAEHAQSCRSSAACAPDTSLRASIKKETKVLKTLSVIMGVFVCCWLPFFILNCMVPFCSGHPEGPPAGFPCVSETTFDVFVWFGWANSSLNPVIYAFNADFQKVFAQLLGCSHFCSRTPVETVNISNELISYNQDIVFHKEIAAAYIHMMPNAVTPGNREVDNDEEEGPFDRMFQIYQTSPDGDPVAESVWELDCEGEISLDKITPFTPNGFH
Sequence of 5-HT7 (P34969 whole entry): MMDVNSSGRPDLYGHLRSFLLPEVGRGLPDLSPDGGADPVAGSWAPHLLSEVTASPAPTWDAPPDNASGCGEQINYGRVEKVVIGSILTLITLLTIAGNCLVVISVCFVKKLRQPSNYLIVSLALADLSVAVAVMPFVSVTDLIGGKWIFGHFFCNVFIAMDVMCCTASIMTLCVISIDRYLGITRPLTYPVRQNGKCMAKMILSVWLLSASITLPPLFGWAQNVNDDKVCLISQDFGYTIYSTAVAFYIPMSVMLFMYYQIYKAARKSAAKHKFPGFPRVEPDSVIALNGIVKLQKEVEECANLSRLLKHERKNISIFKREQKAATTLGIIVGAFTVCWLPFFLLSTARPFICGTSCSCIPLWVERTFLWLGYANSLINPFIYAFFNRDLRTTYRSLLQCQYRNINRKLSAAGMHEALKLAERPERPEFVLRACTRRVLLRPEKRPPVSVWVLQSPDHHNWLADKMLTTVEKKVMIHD
Sequence of Norepinephrine transporter (P23975 whole entry): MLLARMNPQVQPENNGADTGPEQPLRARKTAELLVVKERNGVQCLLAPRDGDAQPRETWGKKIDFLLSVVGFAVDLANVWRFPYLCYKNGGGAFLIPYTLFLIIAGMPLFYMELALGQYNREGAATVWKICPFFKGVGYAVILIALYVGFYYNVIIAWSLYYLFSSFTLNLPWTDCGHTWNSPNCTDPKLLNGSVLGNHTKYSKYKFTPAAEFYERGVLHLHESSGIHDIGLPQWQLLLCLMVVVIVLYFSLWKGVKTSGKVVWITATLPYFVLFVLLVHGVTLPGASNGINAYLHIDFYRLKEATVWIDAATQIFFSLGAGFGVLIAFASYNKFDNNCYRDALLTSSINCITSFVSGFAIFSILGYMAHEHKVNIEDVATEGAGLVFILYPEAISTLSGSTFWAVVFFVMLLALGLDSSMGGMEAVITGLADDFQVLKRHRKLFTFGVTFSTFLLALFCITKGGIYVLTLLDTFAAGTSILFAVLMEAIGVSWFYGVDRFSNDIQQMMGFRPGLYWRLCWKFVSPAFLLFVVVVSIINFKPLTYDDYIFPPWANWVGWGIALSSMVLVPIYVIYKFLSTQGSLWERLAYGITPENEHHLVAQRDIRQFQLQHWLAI
Sequence of 5-HT2A (P28223 whole entry): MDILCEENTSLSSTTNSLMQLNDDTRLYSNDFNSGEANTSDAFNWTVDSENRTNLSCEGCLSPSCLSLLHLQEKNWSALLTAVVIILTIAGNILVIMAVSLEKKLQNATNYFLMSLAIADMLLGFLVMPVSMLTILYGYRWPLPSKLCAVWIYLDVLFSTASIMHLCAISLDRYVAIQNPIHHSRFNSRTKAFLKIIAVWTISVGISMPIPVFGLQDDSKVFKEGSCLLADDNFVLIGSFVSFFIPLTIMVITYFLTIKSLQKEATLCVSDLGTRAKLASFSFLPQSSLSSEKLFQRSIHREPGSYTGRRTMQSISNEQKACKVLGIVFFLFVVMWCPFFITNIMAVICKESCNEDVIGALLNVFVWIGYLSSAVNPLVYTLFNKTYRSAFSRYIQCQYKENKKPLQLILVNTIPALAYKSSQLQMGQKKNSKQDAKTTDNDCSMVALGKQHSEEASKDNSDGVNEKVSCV
Sequence of CXCR2 (IL-8B) (P25025 whole entry): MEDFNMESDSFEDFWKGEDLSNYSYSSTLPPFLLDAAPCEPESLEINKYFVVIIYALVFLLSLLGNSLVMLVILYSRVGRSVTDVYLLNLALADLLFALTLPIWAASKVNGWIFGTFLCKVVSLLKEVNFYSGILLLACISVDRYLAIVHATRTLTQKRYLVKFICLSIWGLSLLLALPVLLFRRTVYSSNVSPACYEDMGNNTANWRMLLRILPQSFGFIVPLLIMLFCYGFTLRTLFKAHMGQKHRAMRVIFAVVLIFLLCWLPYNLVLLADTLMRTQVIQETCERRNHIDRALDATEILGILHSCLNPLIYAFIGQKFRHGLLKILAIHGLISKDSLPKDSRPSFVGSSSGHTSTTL
Sequence of M2 (P08172 whole entry): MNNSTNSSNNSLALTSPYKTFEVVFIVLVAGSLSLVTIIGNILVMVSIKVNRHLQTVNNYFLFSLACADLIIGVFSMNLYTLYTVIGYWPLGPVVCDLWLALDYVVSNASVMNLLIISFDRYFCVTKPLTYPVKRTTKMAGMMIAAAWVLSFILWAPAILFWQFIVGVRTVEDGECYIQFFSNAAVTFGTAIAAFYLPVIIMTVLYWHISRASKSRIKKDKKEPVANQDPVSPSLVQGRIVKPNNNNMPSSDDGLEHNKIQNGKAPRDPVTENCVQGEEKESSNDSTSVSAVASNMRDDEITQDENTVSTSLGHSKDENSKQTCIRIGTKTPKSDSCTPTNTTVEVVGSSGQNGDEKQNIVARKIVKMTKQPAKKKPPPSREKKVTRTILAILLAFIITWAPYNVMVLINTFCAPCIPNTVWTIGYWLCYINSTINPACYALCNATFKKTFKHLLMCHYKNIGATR
Sequence of 5-HT transporter (P31645 whole entry): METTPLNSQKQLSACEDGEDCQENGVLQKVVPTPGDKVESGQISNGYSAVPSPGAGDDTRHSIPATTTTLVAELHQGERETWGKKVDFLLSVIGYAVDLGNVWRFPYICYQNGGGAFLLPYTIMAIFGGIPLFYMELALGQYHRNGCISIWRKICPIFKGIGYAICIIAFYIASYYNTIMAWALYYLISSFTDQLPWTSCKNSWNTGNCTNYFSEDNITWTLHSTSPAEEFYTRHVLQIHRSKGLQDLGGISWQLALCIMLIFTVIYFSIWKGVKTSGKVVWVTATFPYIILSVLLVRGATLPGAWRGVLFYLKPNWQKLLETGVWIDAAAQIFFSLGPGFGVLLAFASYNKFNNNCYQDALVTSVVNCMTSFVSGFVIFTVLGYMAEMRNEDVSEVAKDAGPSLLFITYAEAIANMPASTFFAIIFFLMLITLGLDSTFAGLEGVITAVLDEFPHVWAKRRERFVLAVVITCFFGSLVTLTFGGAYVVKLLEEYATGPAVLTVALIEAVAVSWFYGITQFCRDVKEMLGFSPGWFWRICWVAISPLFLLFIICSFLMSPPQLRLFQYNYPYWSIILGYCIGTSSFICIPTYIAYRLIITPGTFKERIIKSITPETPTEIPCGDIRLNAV
Sequence of β2 (P07550 whole entry): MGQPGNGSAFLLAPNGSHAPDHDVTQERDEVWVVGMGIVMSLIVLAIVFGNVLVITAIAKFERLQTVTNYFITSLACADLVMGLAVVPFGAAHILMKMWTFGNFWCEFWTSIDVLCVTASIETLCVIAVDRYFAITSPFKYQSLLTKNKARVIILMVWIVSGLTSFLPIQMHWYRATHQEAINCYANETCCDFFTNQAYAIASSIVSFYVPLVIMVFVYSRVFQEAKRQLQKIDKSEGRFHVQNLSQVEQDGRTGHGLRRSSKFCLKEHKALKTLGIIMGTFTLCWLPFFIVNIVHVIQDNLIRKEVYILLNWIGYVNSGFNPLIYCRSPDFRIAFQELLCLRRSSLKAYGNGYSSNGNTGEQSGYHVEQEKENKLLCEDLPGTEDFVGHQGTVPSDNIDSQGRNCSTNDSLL
Sequence of D2S (P14416 1-414 isoform P14416-2): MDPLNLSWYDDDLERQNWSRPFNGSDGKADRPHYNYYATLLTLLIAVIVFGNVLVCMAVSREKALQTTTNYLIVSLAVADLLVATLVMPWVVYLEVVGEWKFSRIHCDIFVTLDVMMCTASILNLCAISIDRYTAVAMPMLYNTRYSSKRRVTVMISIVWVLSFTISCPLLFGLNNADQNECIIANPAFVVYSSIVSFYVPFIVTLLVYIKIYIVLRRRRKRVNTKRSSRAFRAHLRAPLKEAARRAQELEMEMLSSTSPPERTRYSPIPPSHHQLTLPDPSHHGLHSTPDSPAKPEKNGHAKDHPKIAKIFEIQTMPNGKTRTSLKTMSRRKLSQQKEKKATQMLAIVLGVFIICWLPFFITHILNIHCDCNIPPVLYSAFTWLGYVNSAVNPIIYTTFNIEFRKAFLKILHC

With `O=C([O-])c1ccc(C2(NC(=O)[C@H]3CC4(CCN3Cc3ccc(C(F)(F)F)cc3)CC4)CC2)cc1.[Na+]` [CR6086, Sodium (R)-4-(1-(6-(4-(trifluoromethyl)benzyl)-6-azaspiro[2.5]octane-5-carboxamido)cyclopropyl)benzoate] the “CR6086 Activity at 10µM” value [1] was “IN (IN = < 20% displacement or inhibition (all tables))”, the inhibition at 10 µM [2] was under 20% and the inhibition at 10 µM [3] was under 20%. For the same compound, the inhibition at 10 µM [4] was under 20%, the “CR6086 Activity at 10µM” value [5] was “IN (IN = < 20% displacement or inhibition (all tables))” and the inhibition at 10 µM [6] was under 20%. The inhibition at 10 µM [7] was under 20%, the inhibition at 10 µM [8] was under 20% and the inhibition at 10 µM [9] was under 20%. It also gave an inhibition at 10 µM [10] of under 20%, an inhibition at 10 µM [11] of under 20% and an inhibition at 10 µM [12] of under 20%. The inhibition at 10 µM [13] was under 20% and the inhibition at 10 µM [14] was under 20%.
